Measurements as given in patent EP4729519A1, “CRYSTAL FORM OF ENPP1 INHIBITOR” (CSPC Zhongqi Pharmaceutical Technology (Shijiazhuang) Co., …, priority 2023, dated 2024).
Read-outs that look alike come from different tables or passages of the source.

What was measured:
hENPP1 enzyme = target: T1, hENPP1 enzyme (Homo sapiens, UniProt P22413); assay: ENPP1 enzymatic inhibition test in vitro (TMP-pNP hydrolysis, OD405); format: biochemical; conditions: TMP-pNP substrate, pH 9.5, 37 °C, 0.5 h
T1 sequence (P22413 1-925): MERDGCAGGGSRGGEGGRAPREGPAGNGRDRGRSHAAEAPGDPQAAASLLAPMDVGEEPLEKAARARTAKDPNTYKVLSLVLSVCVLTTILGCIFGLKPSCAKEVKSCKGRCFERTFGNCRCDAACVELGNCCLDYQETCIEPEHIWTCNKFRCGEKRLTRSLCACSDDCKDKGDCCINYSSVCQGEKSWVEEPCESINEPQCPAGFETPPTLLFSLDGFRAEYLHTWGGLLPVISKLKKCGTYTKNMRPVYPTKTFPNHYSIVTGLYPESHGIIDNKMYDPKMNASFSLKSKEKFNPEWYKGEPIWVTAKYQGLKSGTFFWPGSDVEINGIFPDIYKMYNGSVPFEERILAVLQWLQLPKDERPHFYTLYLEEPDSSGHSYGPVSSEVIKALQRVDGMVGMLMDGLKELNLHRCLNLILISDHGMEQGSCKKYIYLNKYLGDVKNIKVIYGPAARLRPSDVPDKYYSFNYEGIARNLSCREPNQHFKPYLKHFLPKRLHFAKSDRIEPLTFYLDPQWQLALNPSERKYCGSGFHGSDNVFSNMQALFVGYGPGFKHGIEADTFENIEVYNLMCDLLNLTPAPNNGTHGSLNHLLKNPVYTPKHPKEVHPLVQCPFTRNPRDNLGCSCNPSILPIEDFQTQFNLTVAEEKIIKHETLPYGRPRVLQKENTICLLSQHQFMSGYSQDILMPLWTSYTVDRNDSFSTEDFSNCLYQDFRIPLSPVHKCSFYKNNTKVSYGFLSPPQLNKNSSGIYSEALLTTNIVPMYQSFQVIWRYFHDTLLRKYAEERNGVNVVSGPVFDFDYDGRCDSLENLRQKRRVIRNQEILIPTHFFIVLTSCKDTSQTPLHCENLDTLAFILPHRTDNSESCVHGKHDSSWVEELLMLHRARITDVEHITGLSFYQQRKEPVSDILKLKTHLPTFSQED
From the text: ENPP1 is a transmembrane glycoprotein capable of hydrolyzing nucleotides and derivatives with nucleotide-5'-monophosphate structures. ENPP1 is capable of hydrolyzing artificially synthesized 5'-p-nitrophenyl monophosphate (TMP-pNP) into nucleotide 5'-monophosphate and p-nitrophenol, while p-nitrophenol is a chromogenic product. The production amount of p-nitrophenol product can be directly measured by its absorbance at 405 nm, which is directly proportional to the enzyme activity.
100X serial gradient dilutions of compound were prepared with DMSO, starting from a stock concentration of 1 mM, and using a 4-fold serial gradient dilution to make 10 concentration points. 300 Nanoliter of compounds at gradient concentrations were transferred to a 384-well assay plate (final concentration: starting at 10 µM, 4-fold serial gradient dilution, 10 concentration points) by using Echo. First, 15 µL of 0.2 ng/uL hENPP1 enzyme (2× final concentration) prepared in an assay buffer (250 mM NaCl, 50 mM Tris, pH = 9.5) was added to each well. […] After incubation at 37 °C for 0.5 h, the OD405 nm value was read by the microplate reader. The percentage of inhibition rate was calculated using the formula: %Inhibition Rate=(ODhigh signal control - ODsample well) / (ODhigh signal control - ODlow signal control)*100. The IC50 value was calculated using four-parameter fitting. […]

[1] = tested on: pancreatic cancer Pan02 cells; assay: Mouse subcutaneous homograft tumour model of pancreatic cancer Pan02; format: in vivo, C57BL/6 mice; conditions: 20 mg/kg oral gavage twice daily
Method: • 1. Experimental Objective: The in vivo efficacy of the test drug in the mouse subcutaneous homograft tumour model of pancreatic cancer Pan02 cells was evaluated. • 2. Experimental Methods • 2.1 Cell Culture Mouse pancreatic cancer Pan02 cells were cultured in monolayer in vitro in DMEM medium supplemented with 10% fetal bovine serum, 0.01 mg/mL sinsulin, 1% penicillin/streptomycin/amphotericin B in an incubator at 37 °C with 5% CO2. When the cell saturation was 80%-90% and the number reached the requirement, the cells were harvested, counted, and inoculated. • 2.2 Animals C57BL/6 mice, female, 6-8 weeks old, weighing 18-22 g. The mice were provided by Shanghai Xipu-Bikai Laboratory Animal Co., Ltd., or other suppliers. • 2.3 Tumour Inoculation and Animal Grouping and administration 0.1 Milliliter of Pan02 cells (5×10^6 cells) were inoculated subcutaneously into the right hind back of each mouse, and animal grouping and administration began when the average tumour volume reached about 100-200 mm^3. Animals were weighed and tumour volumes were measured before administration. Mice were randomly divided into groups based on the tumour volume, with 8 mice in each group. […] Tumor volume was calculated using the formula: V=0.5a×b^2, where a and b represented the long and short diameters of the tumour, respectively. […]

[2] = Pharmacokinetic test in mice, plasma concentration by LC-MS/MS; format: in vivo, CD-1 male mice; conditions: male, CD-1, mouse; for AUC(0-t): read-out: AUC0-24h
[3] = tested on: C57 BL/6 mouse model of myocardial ischemia; assay: Mouse myocardial ischemia model (LAD ligation), echocardiography and Masson staining; format: in vivo; conditions: mice; for reduction of the degree of fibrosis compared with the vehicle control group: Masson staining; for increase of left ventricular ejection fraction (LVEF) compared with the vehicle control group / increase of left ventricular fractional shortening (FS) compared with the vehicle control group: day 1; for increase of left ventricular ejection fraction (LVEF) / increase of left ventricular fractional shortening (FS): day 7
From the text: This study aimed to evaluate the pharmacodynamic effect of the compound of formula (I) in a C57 BL/6 mouse model of myocardial ischemia.
After the animals had acclimated to the facility for one week, they were divided into four groups based on their body weights on the day before surgery, with 6 animals in the sham group (Sham) and 8 animals in the model group (MI). On the next day, the animals underwent myocardial ischemia surgery for modeling (the mice in the Sham group only underwent thoracotomy and threading without ligation). The model was established by ligation of the left anterior descending coronary artery (LAD). After model establishment, the mice were administered penicillin (20,000 units/mouse, i.m.) for 3 days, and disinfected to prevent infection.
Each group of animals was administered the corresponding compounds one hour before surgery. The control group (Vehicle) was administered the vehicle: 5% DMSO+45% PEG400+50% H2O (1% CMC-Na). The experimental groups were administered by oral gavage at doses of 4 mg/kg and 20 mg/kg, respectively, twice daily for 28 consecutive days. The body weights of the animals were monitored daily after administration, and echocardiographic imaging indicators were measured on days 1, 7 and 28. The primary indicators of echocardiographic evaluation were left ventricular fractional shortening (FS) and left ventricular ejection fraction (LVEF). After the echocardiographic measurement on day 28, heart tissues were collected in a tissue fixative for pathological analysis by Masson's trichrome staining.

[4] = tested on: SD rat model of myocardial ischemia; assay: Rat myocardial ischemia model (LAD ligation), echocardiography and Masson staining; format: in vivo; conditions: rats; for reduction of the degree of fibrosis compared with the vehicle control group: Masson staining
Method: This study aimed to evaluate the pharmacodynamic effect of the compound of formula (I) in a SD rat model of myocardial ischemia.
After the animals had acclimated to the facility for one week, the model was established by ligation of the left anterior descending coronary artery (LAD). After model establishment, the rats were administered penicillin (80,000 units/rat, i.m.) for 3 days, and disinfected to prevent infection.
One day after model establishment, the modeled animals were randomly divided into 4 groups according to the baseline body weight and echocardiographic imaging indicators, with 4 animals in each sham group (Sham) and 6 animals in each myocardial infarction model group (MI), and drug administration was then initiated. The control group was given the blank vehicle: 5% DMSO + 45% PEG400 + 50% H2O (1% CMC-Na). The experimental groups were administered by oral gavage at doses of 30 mg/kg and 75 mg/kg, respectively, twice daily for 28 consecutive days. The body weights of the animals were monitored daily after administration, and echocardiographic imaging indicators were measured on days 7 and 28. The primary indicators of echocardiographic evaluation were left ventricular fractional shortening (FS) and left ventricular ejection fraction (LVEF). After the echocardiographic measurement on day 28, heart tissues were collected in a tissue fixative for pathological analysis by Masson's trichrome staining.

[5] = 30mpk oral gavage twice daily, 7th day
[6] = 30mpk oral gavage twice daily, day 28
[7] = 75mpk oral gavage twice daily, 7th day
[8] = 75mpk oral gavage twice daily, day 28

IC50 (hENPP1 enzyme): 0.05 nM
clearance ([2]; 2 mg/kg, IV, 2mpk): 3.2 mL/min/kg
half-life ([2]; 2 mg/kg, IV, 2mpk): 321 min
AUC(0-t) ([2]; 2 mg/kg, IV, 2mpk): 10000 ng·h/mL
Vd ([2]; 2 mg/kg, IV, 2mpk, read-out: Vss): 1.08 L/kg
Cmax ([2]; 10 mg/kg, PO, 10mpk): 8080 ng/mL
Tmax ([2]; 10 mg/kg, PO, 10mpk): 2 h
half-life ([2]; 10 mg/kg, PO, 10mpk): 210 min
AUC(0-t) ([2]; 10 mg/kg, PO, 10mpk): 47800 ng·h/mL
Compound: COc1ccc2c3c(cnc2n1)COC(=O)N3Cc1c(F)cc(S(N)(=O)=O)cc1F [Compound of Formula (I), 3,5-difluoro-4-((8-methoxy-2-oxo-2H-[1,3]oxazino[5,4-c][1,8]naphthyridin-1(4H)-yl)methyl)benzenesulfonamide]
effect on the body weight of the mice ([1]; 16 days): no inhibitory effect on the body weight
TGI ([1]; after administration for 16 days, p<0.05 vs control group): 43.4%
reduction of the degree of fibrosis compared with the vehicle control group ([3]; 4 mg/kg twice daily, 28 days): 8.8%
reduction of the degree of fibrosis compared with the vehicle control group ([3]; 20 mg/kg twice daily, 28 days): 9.6%
effect on body weight ([3]; 4 and 20 mg/kg twice daily, 28 days): without any significant effect on body weight
increase of left ventricular ejection fraction (LVEF) compared with the vehicle control group ([3]; 4 mpk oral gavage twice daily): 15%
increase of left ventricular fractional shortening (FS) compared with the vehicle control group ([3]; 4 mpk oral gavage twice daily): 7%
increase of left ventricular ejection fraction (LVEF) ([3]; 4 mpk oral gavage twice daily): 23.4%
increase of left ventricular fractional shortening (FS) ([3]; 4 mpk oral gavage twice daily): 12.2%
increase of left ventricular ejection fraction (LVEF) compared with the vehicle control group ([3]; 20 mpk oral gavage twice daily): 10%
increase of left ventricular fractional shortening (FS) compared with the vehicle control group ([3]; 20 mpk oral gavage twice daily): 5%
increase of left ventricular ejection fraction (LVEF) ([3]; 20 mpk oral gavage twice daily): 23.3%
increase of left ventricular fractional shortening (FS) ([3]; 20 mpk oral gavage twice daily): 12.3%
LVEF and FS in the left ventricle ([3]; day 28, vehicle control group further deteriorated): further maintained the LVEF and FS
reduction of the degree of fibrosis compared with the vehicle control group ([4]; 30 mg/kg twice daily, 28 days): 5.2%
reduction of the degree of fibrosis compared with the vehicle control group ([4]; 75 mg/kg twice daily, 28 days): 6.5%
effect on body weight ([4]; 30 and 75 mg/kg twice daily, 28 days): no significant effect on body weight
increase of LVEF [4, 5]: 11.43%
increase of left ventricular fractional shortening (FS) [4, 5]: 9.73%
increase of LVEF [4, 6]: 18.75%
increase of left ventricular fractional shortening (FS) [4, 6]: 13.01%
increase of LVEF [4, 7]: 18.85%
increase of left ventricular fractional shortening (FS) [4, 7]: 12.62%
increase of LVEF [4, 8]: 23.8%
increase of left ventricular fractional shortening (FS) [4, 8]: 15.88%
